pIC50: −log10 of the molar value.
The compounds below were run against T1, USP19 (Homo sapiens, UniProt O94966) (assay: USP19 fluorescence polarisation (FP) homogeneous assay). Conditions: Ubiquitin-Lys-TAMRA substrate, full-length USP19 2.5 nM, average of at least two duplicate experiments.
T1 sequence (O94966 1-1318): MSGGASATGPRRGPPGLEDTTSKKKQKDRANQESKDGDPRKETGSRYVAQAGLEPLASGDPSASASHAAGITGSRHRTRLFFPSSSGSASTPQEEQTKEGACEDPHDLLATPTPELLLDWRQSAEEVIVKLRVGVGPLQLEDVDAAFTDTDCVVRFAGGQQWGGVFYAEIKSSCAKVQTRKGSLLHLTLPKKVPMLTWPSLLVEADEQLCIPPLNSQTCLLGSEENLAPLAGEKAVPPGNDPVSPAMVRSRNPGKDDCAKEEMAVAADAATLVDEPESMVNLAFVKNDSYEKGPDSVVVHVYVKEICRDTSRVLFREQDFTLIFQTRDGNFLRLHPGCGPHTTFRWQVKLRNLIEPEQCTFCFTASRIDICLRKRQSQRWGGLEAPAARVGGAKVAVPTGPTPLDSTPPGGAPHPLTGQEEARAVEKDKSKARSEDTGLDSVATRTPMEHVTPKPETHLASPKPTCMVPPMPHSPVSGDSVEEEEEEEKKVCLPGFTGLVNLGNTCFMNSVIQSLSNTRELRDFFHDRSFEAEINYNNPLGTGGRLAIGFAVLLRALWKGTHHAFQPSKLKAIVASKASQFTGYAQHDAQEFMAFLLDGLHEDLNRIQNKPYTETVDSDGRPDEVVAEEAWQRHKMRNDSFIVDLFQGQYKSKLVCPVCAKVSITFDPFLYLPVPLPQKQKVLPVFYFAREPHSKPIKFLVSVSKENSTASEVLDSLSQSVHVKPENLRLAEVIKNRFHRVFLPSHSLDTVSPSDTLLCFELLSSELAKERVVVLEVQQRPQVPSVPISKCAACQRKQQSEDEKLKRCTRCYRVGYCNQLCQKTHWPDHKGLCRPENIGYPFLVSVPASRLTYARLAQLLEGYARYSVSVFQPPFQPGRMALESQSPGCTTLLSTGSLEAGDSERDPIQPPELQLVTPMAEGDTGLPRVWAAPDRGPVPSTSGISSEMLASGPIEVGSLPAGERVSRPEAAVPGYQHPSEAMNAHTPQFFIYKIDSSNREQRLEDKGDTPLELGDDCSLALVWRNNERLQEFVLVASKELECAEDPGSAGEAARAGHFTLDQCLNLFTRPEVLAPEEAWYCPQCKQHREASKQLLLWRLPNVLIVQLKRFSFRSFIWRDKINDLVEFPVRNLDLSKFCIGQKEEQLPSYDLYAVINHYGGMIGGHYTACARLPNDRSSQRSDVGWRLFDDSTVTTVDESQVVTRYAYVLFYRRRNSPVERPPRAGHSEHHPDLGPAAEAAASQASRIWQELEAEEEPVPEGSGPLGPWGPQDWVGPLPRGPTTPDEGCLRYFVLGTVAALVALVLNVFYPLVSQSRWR
Type: biochemical
Set-up: Full-length USP19 was purchased from Boston Biochem (E-576); purchased Boston Biochem E-576
Protocol: Unless otherwise stated, all other reagents were purchased from Sigma. Enzymatic reactions were conducted in black flat bottom polystyrene 384-well plates (Nunc) and 30 μL total volume. […] Inhibitors were stored as 10 mM DMSO stocks in an inert environment (low humidity, dark, low oxygen, room temperature) using the Storage Pod System and serial dilutions were prepared in buffer just prior to the assay (from 200 μM to 2 μM, 8-18 data point curve). Following incubation at RT for 30 min, the enzymatic reactions were initiated by dispensing the Ub substrate (500 nM, 10 μL). FP was measured every 15 min over a period of 90 min (within the linear range of the assay) using a Synergy 4 plate reader (BioTek) exciting at 530 nm and measuring the amount of parallel and perpendicular light at 575 nm. The FP signal was subsequently normalised to the no compound control.

Compound	pIC50
CC(n1cnc(-c2ccccc2)cc1=O)C1(O)CCN(C(=O)C[C@@H](C)c2ccccc2)CC1 (mixture of isomers) [Example 47, 3-((R)-1-(4-Hydroxy-1-((R)-3-phenylbutanoyl)piperidin-4-yl)ethyl)-6-phenylpyrimidin-4(3H)-one and 3-((S)-1-(4-hydroxy-1-((R)-3-phenylbutanoyl)piperidin-4-yl)ethyl)-6-phenylpyrimidin-4(3H)-one]	3.60 to 4.30
C[C@H](CC1CCCCC1)C(=O)N1CC[C@@](O)(Cn2cc(C(=O)N3CCNCC3)c(-c3ccccc3F)cc2=O)C(C)(C)C1 [Example 206, 1-(((S)-1-((R)-3-Cyclohexyl-2-methylpropanoyl)-4-hydroxy-3,3-dimethylpiperidin-4-yl)methyl)-4-(2-fluorophenyl)-5-(piperazine-1-carbonyl)pyridin-2(1 H)-one]	> 6.30
C[C@H](CC1CCCCC1)C(=O)N1CCC(O)(Cn2cc(C(=O)N3CCOCC3)c(-c3ccccc3)cc2=O)C(C)(C)C1 (stereo partly shown) [Example 168]	> 6.30
C[C@H](CC1CCC1)C(=O)N1CC[C@@](O)(Cn2cc(C(=O)N3CCNCC3)c(-c3ccccc3)cc2=O)C2(CCCC2)C1 [Example 215, 1-(((S)-7-((R)-3-Cyclobutyl-2-methylpropanoyl)-10-hydroxy-7-azaspiro[4.5]decan-10-yl)methyl)-4-phenyl-5-(piperazine-1-carbonyl)pyridin-2(1H)-one]	> 6.30
CC(C)N(C)C(=O)c1cn(CC2(O)CCN(C(=O)[C@H](C)CC3CCCCC3)CC2(C)C)c(=O)cc1-c1ccccc1 (mixture of isomers) [Example 73, 1-(((R)-1-((R)-3-Cyclohexyl-2-methylpropanoyl)-4-hydroxy-3,3-dimethylpiperidin-4-yl)methyl)-N-isopropyl-N-methyl-6-oxo-4-phenyl-1,6-dihydropyridine-3-carboxamide and 1-(((S)-1-((R)-3-Cyclohexyl-2-methylpropanoyl)-4-hydroxy-3,3-dimethylpiperidin-4-yl)methyl)-N-isopropyl-N-methyl-6-oxo-4-phenyl-1,6-dihydropyridine-3-carboxamide]	> 6.30

Results, then the compound that gave them:

pIC50	Compound
> 6.30	C[C@H](CC1CCCCC1)C(=O)N1CC[C@@](O)(Cn2cc(C(=O)N3CCNCC3)c(-c3ccccc3)cc2=O)C(C)(C)C1 [Example 124, 1-(((S)-1-((R)-3-Cyclohexyl-2-methylpropanoyl)-4-hydroxy-3,3-dimethylpiperidin-4-yl)methyl)-4-phenyl-5-(piperazine-1-carbonyl)pyridin-2(1H)-one]
> 6.30	CCOC(=O)c1cn(C[C@]2(O)CCN(C(=O)[C@H](C)CC3CCCCC3)CC23CCCC3)c(=O)cc1-c1ccccc1 [Example 252, Ethyl 1-(((S)-7-((R)-3-cyclohexyl-2-methylpropanoyl)-10-hydroxy-7-azaspiro[4.5]decan-10-yl)methyl)-6-oxo-4-phenyl-1,6-dihydropyridine-3-carboxylate]
> 6.30	O=C([C@@H]1CCNC[C@H]1c1ccccc1)N1CCC(O)(Cn2cnc(-c3ccccc3)cc2=O)C2(CCCC2)C1 (stereo partly drawn) [Example 254, 3-((10-Hydroxy-7-((3R,4R)-3-phenylpiperidine-4-carbonyl)-7-azaspiro[4.5]decan-10-yl)methyl)-6-phenylpyrimidin-4(3H)-one]
> 6.30	C[C@H](CC1CCC1)C(=O)N1CC[C@@](O)(Cn2cc(C(=O)N3CCNCC3)c(-c3ccccc3F)cc2=O)C2(CCCC2)C1 [Example 224, 1-(((S)-7-((R)-3-Cyclobutyl-2-methylpropanoyl)-10-hydroxy-7-azaspiro[4.5]decan-10-yl)methyl)-4-(2-fluorophenyl)-5-(piperazine-1-carbonyl)pyridin-2(1 H)-one]
> 6.30	C[C@H](CC1CC1)C(=O)N1CCC(O)(Cn2cc(C(=O)N(C)C)c(-c3ccccc3)cc2=O)C2(CCCC2)C1 (stereo partly drawn) [Example 149, 1-((7-((R)-3-Cyclopropyl-2-methylpropanoyl)-10-hydroxy-7-azaspiro[4.5]decan-10-yl)methyl)-N,N-dimethyl-6-oxo-4-phenyl-1,6-dihydropyridine-3-carboxamide]

Source: patent US20220016115A1, “USP19 INHIBITORS FOR USE IN THERAPY” (ALMAC DISCOVERY LIMITED, priority 2018, published 2022)
